These results are taken from US9492485B2, “Pluripotent stem cell-derived brown adipocytes, pluripotent stem cell-derived cell aggregate, method for producing same, and cell therapy and medical therapy therefor” (ID Pharma Co., Ltd., priority 2011, dated 2016).

The test system of assay [1] is undifferentiated human ES cells. The assay can be described thus: Oxygen consumption (OCR) with XF96 Extracellular Flux Analyzer. In kind it is cell-based. The following applies: CL316,243 100 nM or isoproterenol 100 μM, 4 hours (FIG. 12A left).
The test system of assay [2] is white adipocytes produced from human mesenchymal stem cells (MSCs). Described as above. In kind it is cell-based. The following applies: CL316,243 100 nM or isoproterenol 100 μM, 4 hours (FIG. 12C).
The test system of assay [3] is brown adipocytes derived from human ES cells. Described as above. The following applies: CL316,243 100 nM or isoproterenol 100 μM, 4 hours (FIG. 12A right). It is filed as cell-based. As to the method:
(§1) Brown adipocytes were differentiated from KhES-3 and SeV-iPS cell lines in accordance with the method described in Example 5. Here, the adhesion culture in the step (B) for differentiation induction was carried out using a 96-well plate for exclusive use in XF96 Extracellular Flux Analyzer (Seahorse Bioscience Inc., Billerica, Mass.) after coating with 0.1% gelatin. The cell aggregates were seeded at an amount of 30 cell aggregates per well. The cell aggregates seeded in the 96-well plate were incubated in a 5% CO2 incubator at 37° C. for 2 days. Subsequently, isoproterenol (100 μM) or CL316,243 (100 nM) was added to a half of the wells, and incubation was further carried out in a 5% CO2 incubator at 37° C. for 4 hours, followed by measurement of oxygen consumption (OCR) per minute with XF96 Extracellular Flux Analyzer (Seahorse Bioscience Inc., Billerica, Mass.).

Assay [4] relates to brown adipocytes derived from human iPS cells. The assay is described as above. In kind it is cell-based. The note with it: CL316,243 100 nM or isoproterenol 100 μM, 4 hours (FIG. 12B right). As for the experimental part: as §1
Assay [5] has as its system undifferentiated human iPS cells. The description is as above. It is filed as cell-based. The following applies: CL316,243 100 nM or isoproterenol 100 μM, 4 hours (FIG. 12B left).
Assay [6] deals with 10-week old mice (male, ICR strain). As to the kind of experiment: Relief of 5-fluorouracil-induced myelosuppression in mice, bone marrow cell count. In kind it is in vivo, mouse. The following applies: 5-FU 100 mg/kg; isoproterenol 30 μmol/kg on 3 to 6 days after; vs saline; P=0.032 (FIG. 16F). As for the experimental part:
Furthermore, whether or not a brown adipocyte stimulant has an effect of relieving a severe side effect of anticancer drug administration, myelosuppression, was investigated. Specifically, an anticancer drug, 5-fluorouracil (5-FU), was administered to 10-week old mice (male, ICR strain) at a dose of 100 mg/kg. Isoproterenol (30 μmol/kg) or saline was administered to the mice on 3 to 6 days after the administration, and bone marrow cells were collected from the thighbone over time and were counted.

In assay [7] the test system is human ES cell-derived brown adipocytes. The assay can be described thus: Influence of brown adipocyte stimulant on hematopoietic cytokine expression levels. In kind it is cell-based. The note with it: treatment with isoproterenol (FIG. 16E).
For assay [8], the system named is brown adipocytes produced from KhES-3 cell line and SeV-iPS cell line. As to the kind of experiment: RT-PCR of PRDM16 and UCP1 gene expression after addition of adrenaline receptor agonist. In kind it is cell-based, human. The following applies: 100 μM, 4 hours, RT-PCR (FIG. 10). As for the experimental part:
Brown adipocytes were produced from KhES-3 cell line and SeV-iPS cell line in accordance with the method described in Example 5 and were reacted with 100 μM of an adrenaline receptor agonist, isoproterenol, for 4 hours. In order to evaluate the activation of the brown adipocytes by the addition of the adrenaline receptor agonist, the expressions of the PRDM16 and UCP1 genes were investigated by RT-PCR.

As for `C[C@H](Cc1ccc2c(c1)OC(C(=O)[O-])(C(=O)[O-])O2)NC[C@H](O)c1cccc(Cl)c1.[Na+].[Na+]` [CL316,243], the OCR value result in assay [1] was “no change”; in assay [2], “no change”; in assay [3], “significant increase”; in assay [4], “significant increase”; in assay [5] it was “no change”.
Consider `CC(C)NCC(O)c1ccc(O)c(O)c1` (stereo not drawn) [isoproterenol], for which the “number of bone marrow cells on the 7th day from the 5-FU administration” value in assay [6] is given as “significantly increased”. Also, the “expression levels of cytokines (TPO, IL6, IL3, G-CSF, GM-CSF, EPO)” value in assay [7] is reported as “increased”. Further, in assay [8], the “expression of the PRDM16 gene” value is “increase” and the “expression of the UCP1 gene” value was “increase”.
